Consider 32 compounds from patent US10933063B2 (priority 2017, dated 2021).

The structures appear in SMILES notation.

As a reminder, the IC50 is the midpoint of a concentration-inhibition curve. Lower therefore signals higher potency.

BTK, sequence (Q06187 whole entry, looked up, species assumed): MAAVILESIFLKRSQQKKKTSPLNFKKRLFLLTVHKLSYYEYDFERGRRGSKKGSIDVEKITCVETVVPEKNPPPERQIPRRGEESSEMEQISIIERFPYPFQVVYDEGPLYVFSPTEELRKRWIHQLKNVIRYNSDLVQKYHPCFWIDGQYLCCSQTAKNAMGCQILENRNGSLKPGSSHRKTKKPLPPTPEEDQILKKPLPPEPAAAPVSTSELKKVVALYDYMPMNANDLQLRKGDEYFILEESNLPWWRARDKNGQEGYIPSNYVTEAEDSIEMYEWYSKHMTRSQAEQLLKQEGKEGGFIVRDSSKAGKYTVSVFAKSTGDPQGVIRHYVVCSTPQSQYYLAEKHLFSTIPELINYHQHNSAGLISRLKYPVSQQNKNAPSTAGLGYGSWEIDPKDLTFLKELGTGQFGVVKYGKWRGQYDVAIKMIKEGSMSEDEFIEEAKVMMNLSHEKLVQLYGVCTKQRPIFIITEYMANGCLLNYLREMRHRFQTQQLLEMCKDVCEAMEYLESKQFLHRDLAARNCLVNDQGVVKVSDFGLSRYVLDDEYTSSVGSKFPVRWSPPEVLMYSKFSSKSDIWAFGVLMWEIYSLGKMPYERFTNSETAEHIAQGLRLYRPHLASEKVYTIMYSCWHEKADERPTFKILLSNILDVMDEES

The assay has as its target BTK (Homo sapiens (Human), UniProt Q06187). Kind of assay: biochemical.
`CC#CN1CCC[C@H]1c1nc(-c2ccc(C(=O)Nc3cc(C(F)(F)F)ccn3)cc2)c2c(CO)nccn12` [Example 210, (S)-4-(8-(hydroxymethyl)-3-(1-(prop-1-yn-1-yl)pyrrolidin-2-yl)imidazo [1,5-a]pyrazin-1-yl)-N-(4-(trifluoromethyl)pyridin-2-yl)benzamide]: the IC50 fell in the range of 100 to 1000 nM.
In the case of `C=CC(=O)N1CCC[C@@H](c2nc(-c3ccc(Oc4cccc(OC)c4F)cc3)c3cncc(C)n23)C1` [Example 70, (R)-1-(3-(1-(4-(2-fluoro-3-methoxyphenoxy)phenyl)-5-methylimidazo[1,5-a]pyrazin-3-yl)piperidin-1-yl)prop-2-en-1-one] it was 10 to 100 nM.
The figure for `C=CC(=O)N1CC[C@@H](c2nc(-c3ccc(Oc4cccc(OC)c4F)cc3)c3cncc(C)n23)C1` [Example 72, (R)-1-(3-(1-(4-(2-fluoro-3-methoxyphenoxy)phenyl)-5-methylimidazo[1,5-a]pyrazin-3-yl)pyrrolidin-1-yl)prop-2-en-1-one] is 10 to 100 nM.
In the case of `CC#CC(=O)N1CCC[C@@H](c2nc(-c3ccc(Oc4cccc(OC)c4F)cc3)c3c(C)ncc(C)n23)C1` [Example 77, (R)-1-(3-(1-(4-(2-fluoro-3-methoxyphenoxy)phenyl)-5,8-dimethylimidazo[1,5-a]pyrazin-3-yl)piperidin-1-yl)but-2-yn-1-one] it was 100 to 1000 nM.
`CC#CC(=O)N1CCC[C@@H](c2nc(-c3ccc(C(=O)Nc4ccccn4)cc3)c3cnccn23)C1` [Example 167, (R)-4-(3-(1-(but-2-ynoyl)piperidin-3-yl)imidazo [1,5-a]pyrazin-1-yl)-N-(pyridin-2-yl)benzamide] had an IC50 of 1000 to 10000 nM.
`CC#CC(=O)N1CC[C@@H](c2nc(-c3ccc(Oc4cccc(OC)c4F)cc3)c3cncc(OCCOC)n23)C1` [Example 103, (R)-1-(3-(1-(4-(2-fluoro-3-methoxyphenoxy)phenyl)-5-(2-methoxyethoxy)imidazo[1,5-a]pyrazin-3-yl)pyrrolidin-1-yl)but-2-yn-1-one] came in with an IC50 of 10 to 100 nM.
Compound `C=CC(=O)N1CCC[C@H]1c1nc(-c2ccc(OCc3cccc(Cl)c3)cc2)c2cnccn12` [Example 141, (S)-1-(2-(1-(4-((3-chlorobenzyl)oxy)phenyl)imidazo[1,5-a]pyrazin-3-yl)pyrrolidin-1-yl)prop-2-en-1-one] returned an IC50 of 10 to 100 nM.
The compound `CC#CC(=O)N1CCC[C@H]1c1nc(-c2ccc(COc3ccc(F)c(F)c3)cc2)c2cnccn12` [Example 132, (S)-l-(2-(1-(4-((3,4-difluorophenoxy)methyl)phenyl)imidazo[1,5-a]pyrazin-3-yl)pyrrolidin-1-yl)but-2-yn-1-one] gave an IC50 of 1000 to 10000 nM.
Consider `CC#CC(=O)N1CCC[C@H]1c1nc(-c2ccc(COc3cccc(OC)c3F)cc2)c2cnccn12` [Example 160, (S)-1-(2-(1-(4-((2-fluoro-3-methoxyphenoxy)methyl)phenyl)imidazo[1,5-a]pyrazin-3-yl)pyrrolidin-1-yl)but-2-yn-1-one], for which the IC50 fell in the range of 1000 to 10000 nM.
Consider `C=CC(=O)N1CCC[C@H]1c1nc(-c2ccc(Oc3ccccc3OC)cc2)c2cnccn12` [Example 23, (S)-1-(2-(1-(4-(2-methoxyphenoxy)phenyl)imidazo[1,5-a]pyrazin-3-yl)pyrrolidin-1-yl)prop-2-en-1-one], for which the IC50 is 10 to 100 nM.
With `CC#CC(=O)N1CCC[C@H]1c1nc(-c2ccc(COc3ccccc3)cc2)c2cnccn12` [Example 144, (S)-1-(2-(1-(4-(phenoxymethyl)phenyl)imidazo[1,5-a]pyrazin-3-yl)pyrrolidin-1-yl)but-2-yn-1-one], the IC50 was in the range of 1000 to 10000 nM.
Compound `C=CC(=O)N1CCCC[C@H]1c1nc(-c2ccc(Oc3cccc(OC)c3)cc2)c2cnccn12` [Example 58, (S)-1-(2-(1-(4-(3-methoxyphenoxy)phenyl)imidazo[1,5-a]pyrazin-3-yl)piperidin-1-yl)prop-2-en-1-one] had an IC50 of 10 to 100 nM.
Compound `C=CC(=O)N1CC[C@@H](c2nc(-c3ccc(C(=O)Nc4ccccn4)cc3)c3cnccn23)C1` [Example 176, (R)-4-(3-(1-acryloylpyrrolidin-3-yl)imidazo[1,5-a]pyrazin-1-yl)-N-(pyridin-2-yl)benzamide] returned an IC50 of 10 to 100 nM.
For the compound `CC#CC(=O)N1CCCC[C@H]1c1nc(-c2cccc(OCc3cccc(C(F)(F)F)c3)c2)c2c(C)nccn12` [Example 163, (S)-1-(2-(8-methyl-1-(3-((3-(trifluoromethyl)benzyl)oxy)phenyl)imidazo[1,5-a]pyrazin-3-yl)piperidin-1-yl)but-2-yn-1-one], the IC50 was 1000 to 10000 nM.
Turning to `CC#CC(=O)N1CCC[C@H]1c1nc(-c2ccc(COc3ccccc3F)cc2)c2cnccn12` [Example 146, (S)-1-(2-(1-(4-((2-fluorophenoxy)methyl)phenyl)imidazo[1,5-a]pyrazin-3-yl)pyrrolidin-1-yl)but-2-yn-1-one], the IC50 was in the range of 1000 to 10000 nM.
In the case of `C=CC(=O)N1CCCC[C@H]1c1nc(-c2ccc(Oc3cccc(C)c3)cc2)c2cnccn12` [Example 50, (S)-1-(2-(1-(4-(m-tolyloxy)phenyl)imidazo[1,5-a]pyrazin-3-yl)piperidin-1-yl)prop-2-en-1-one] it was 10 to 100 nM; in that of `C=CC(=O)N1CC[C@@H](c2nc(-c3ccc(Oc4cccc(OC)c4F)cc3)c3c(CCC)nccn23)C1` [Example 109, (R)-1-(3-(1-(4-(2-fluoro-3-methoxyphenoxy)phenyl)-8-propylimidazo[1,5-a]pyrazin-3-yl)pyrrolidin-1-yl)prop-2-en-1-one], 100 to 1000 nM.
`CC#CC(=O)N1CCCC[C@H]1c1nc(-c2ccc(Oc3cccc(OC)c3F)cc2)c2cncc(C)n12` [Example 79, (S)-1-(2-(1-(4-(2-fluoro-3-methoxyphenoxy)phenyl)-5-methylimidazo[1,5-a]pyrazin-3-yl)piperidin-1-yl)but-2-yn-1-one] came in with an IC50 of 100 to 1000 nM.
The compound `CC#CC(=O)N1CC[C@@H](c2nc(-c3ccc(Oc4cccc(OC)c4F)cc3)c3cncc(OC(C)C)n23)C1` [Example 115, (R)-1-(3-(1-(4-(2-fluoro-3-methoxyphenoxy)phenyl)-5-isopropoxyimidazo[1,5-a]pyrazin-3-yl)pyrrolidin-1-yl)but-2-yn-1-one] displayed an IC50 of 100 to 1000 nM.
For `C=CC(=O)N1CC[C@@H](c2nc(-c3ccc(Oc4cccc(OC)c4F)cc3)c3cncc(OC(C)C)n23)C1` [Example 114, (R)-1-(3-(1-(4-(2-fluoro-3-methoxyphenoxy)phenyl)-5-isopropoxyimidazo[1,5-a]pyrazin-3-yl)pyrrolidin-1-yl)prop-2-en-1-one], the IC50 lay within 10 to 100 nM.
On to `CC#CC(=O)N1CCCC[C@H]1c1nc(-c2ccc(Oc3cccc(F)c3)cc2)c2c(C)nccn12` [Example 56, (S)-1-(2-(1-(4-(3-fluorophenoxy)phenyl)-8-methylimidazo[1,5-a]pyrazin-3-yl)piperidin-1-yl)but-2-yn-1-one], for which the IC50 lay within 10 to 100 nM.
In the case of `C=CC(=O)N1CCCC[C@H]1c1nc(-c2ccc(COc3ccc(F)c(F)c3)cc2)c2c(C)nccn12` [Example 150, (S)-1-(2-(1-(4-((3,4-difluorophenoxy)methyl)phenyl)-8-methylimidazo[1,5-a]pyrazin-3-yl)piperidin-1-yl)prop-2-en-1-one] it was 10 to 100 nM; in that of `CC#CC(=O)N1CCC[C@H]1c1nc(-c2ccc(C(=O)Nc3cccc(OC)c3F)cc2)c2cnccn12` [Example 164, (S)-4-(3-(1-(But-2-ynoyl)pyrrolidin-2-yl)imidazo[1,5-a]pyrazin-1-yl)-N-(2-fluoro-3-methoxyphenyl)benzamide], 1000 to 10000 nM.
`CC#CC(=O)N1CC[C@@H](c2nc(-c3ccc(C(=O)Nc4ccccn4)cc3)c3cncc(C)n23)C1` [Example 181, (R)-4-(3-(1-(but-2-ynoyl)pyrrolidin-3-yl)-5-methylimidazo[1,5-a]pyrazin-1-yl)-N-(pyridin-2-yl)benzamide] yielded an IC50 of 1000 to 10000 nM.
`C=CC(=O)N1CCCC[C@H]1c1nc(-c2ccc(COc3cccc(F)c3F)cc2)c2cnccn12` [Example 158, (S)-1-(2-(1-(4-((2,3-difluorophenoxy)methyl)phenyl)imidazo[1,5-a]pyrazin-3-yl)piperidin-1-yl)prop-2-en-1-one] showed an IC50 of 100 to 1000 nM.
In turn, `CC#CC(=O)N1CCCC[C@H]1c1nc(-c2ccc(COc3ccc(F)c(F)c3)cc2)c2cnccn12` [Example 149, (S)-1-(2-(1-(4-((3,4-difluorophenoxy)methyl)phenyl)imidazo[1,5-a]pyrazin-3-yl)piperidin-1-yl)but-2-yn-1-one] yielded an IC50 of 1000 to 10000 nM.
The compound `C=CC(=O)N1CCC[C@H]1c1nc(-c2ccc(Oc3ccc(OC)cc3)cc2)c2cnccn12` [Example 9, (S)-1-(2-(1-(4-(4-methoxyphenoxy)phenyl)imidazo[1,5-a]pyrazin-3-yl)pyrrolidin-1-yl)prop-2-en-1-one] registered an IC50 of 10 to 100 nM.
On to `CC#CC(=O)N1CCCC[C@H]1c1nc(-c2ccc(C(=O)Nc3ccccn3)cc2)c2c(C)nccn12` [Example 171, (S)-4-(3-(1-(but-2-ynoyl)piperidin-2-yl)-8-methylimidazo[1,5-a]pyrazin-1-yl)-N-(pyridin-2-yl)benzamide], for which the IC50 lay within 10 to 100 nM.
Compound `CC#CC(=O)N1CC[C@@H](c2nc(-c3ccc(Oc4cccc(OC)c4F)cc3)c3c(COC(C)=O)nccn23)C1` [Example 118, (R)-(3-(1-(but-2-ynoyl)pyrrolidin-3-yl)-1-(4-(2-fluoro-3-methoxyphenoxy)phenyl)imidazo[1,5-a]pyrazin-8-yl)methyl acetate] returned a half-maximal inhibitory concentration (IC50) of 100 to 1000 nM.
The compound `CC#CC(=O)N1CCC[C@H]1c1nc(-c2ccc(C(=O)Nc3ccccn3)cc2)c2cnccn12` [Example 166, (S)-4-(3-(1-(but-2-ynoyl)pyrrolidin-2-yl)imidazo[1,5-a]pyrazin-1-yl)-N-(pyridin-2-yl) benzamide] returned an IC50 of 1000 to 10000 nM.
Compound `COc1cccc(Oc2ccc(-c3nc([C@@H]4CCCN4C(=O)/C(C#N)=C/C(C)(C)C)n4ccncc34)cc2)c1F` [Example 31, (S,E)-2-(2-(1-(4-(2-fluoro-3-methoxyphenoxy)phenyl)imidazo[1,5-a]pyrazin-3-yl)pyrrolidine-1-carbonyl)-4,4-dimethylpent-2-enenitrile] had an IC50 of 100 to 1000 nM.
Take `C=CC(=O)N1CCCC[C@H]1c1nc(-c2ccc(Oc3cccc(OC)c3F)cc2)c2cncc(C)n12` [Example 78, (S)-1-(2-(1-(4-(2-fluoro-3-methoxyphenoxy)phenyl)-5-methylimidazo[1,5-a]pyrazin-3-yl)piperidin-1-yl)prop-2-en-1-one]: the IC50 was 10 to 100 nM.
